Test results published in patent publication US6869930B1, “Acylated insulin” (priority 1993, dated 2005).

Legend:
[1] = Lipophilicity relative to human insulin, k′rel, by isocratic RP-HPLC (LiChrosorb RP18); type: physicochemical; details: pH 7.3
Experimental: The elution was monitored by following the UV absorption of the eluate at 214 nm. Void time, t0, was found by injecting 0.1 mM sodium nitrate.

rabbits = test: Single day retardation test: prolongation of the blood glucose lowering effect in rabbits; type: in vivo
Experimental: The degree of prolongation of the blood glucose lowering effect was studied in rabbits. Each insulin derivative was tested by subcutaneous injection of 12 nmol thereof in, each of six rabbits in the single day retardation test. Blood sampling for glucose analysis was performed before injection and at 1, 2, 4 and 6 hours after injection. The glucose values found are expressed as percent of initial values.

| Substance | Relative Lipophilicity [1] | Blood glucose, % of initial 1 h (rabbits; 12 nmol subcutaneous, 1 h after injection, 3 Zn^2+/insulin hexamer except where Zn-free) | Blood glucose, % of initial 2 h (rabbits; 12 nmol subcutaneous, 2 h after injection, 3 Zn^2+/insulin hexamer except where Zn-free) | Blood glucose, % of initial 4 h (rabbits; 12 nmol subcutaneous, 4 h after injection, 3 Zn^2+/insulin hexamer except where Zn-free) | Blood glucose, % of initial 6 h (rabbits; 12 nmol subcutaneous, 6 h after injection, 3 Zn^2+/insulin hexamer except where Zn-free) | Index of protraction (rabbits; calculated from blood glucose values, scaled: 100 = bovine ultralente insulin, 0 = Actrapid insulin) | lipophilicity relative to human insulin, k′rel [1] |
| --- | --- | --- | --- | --- | --- | --- | --- |
| N^εB29-lithocholoyl insulin [N^εB29-lithocholoyl insulin (Zn-free)] | 51.6 | 98.3 % of initial | 92.3 % of initial | 100.5 % of initial | 93.4 % of initial | 115 |  |
| Lys^B29(N^ε-[N^α-tetradecanoyl-γ-carboxy-Glu-]) des(B30) Human Insulin [Example 43] |  |  |  |  |  |  | 10 |
| Lys^B29(N^ε-[N^α-tetradecanoyl Aad(−)-OH]) des(B30) Human Insulin [Example 42] |  |  |  |  |  |  | 21 |
